Data from patent US6239171A, “Tocotrienols and tocotrienol-like compounds and methods for their use” (Lipogenics, Inc., priority 1998, dated 2001).
Blank lines part the entries; values can stand above or below the molecule they belong to.

Tests used:
HMG-CoA reductase [1] = target: T1, HMG-CoA reductase (Homo sapiens, UniProt P04035); assay: Hepatic HMG-CoA reductase activity in chickens fed supplemented diets; format: in vivo, chicken; settings: control diet + 50 ppm, 4 weeks
T1 construct: hepatocytes isolated from livers of 8-week old female chickens; endogenous in cells; host or cells: primary chicken hepatocytes
T1 sequence (P04035 1-888): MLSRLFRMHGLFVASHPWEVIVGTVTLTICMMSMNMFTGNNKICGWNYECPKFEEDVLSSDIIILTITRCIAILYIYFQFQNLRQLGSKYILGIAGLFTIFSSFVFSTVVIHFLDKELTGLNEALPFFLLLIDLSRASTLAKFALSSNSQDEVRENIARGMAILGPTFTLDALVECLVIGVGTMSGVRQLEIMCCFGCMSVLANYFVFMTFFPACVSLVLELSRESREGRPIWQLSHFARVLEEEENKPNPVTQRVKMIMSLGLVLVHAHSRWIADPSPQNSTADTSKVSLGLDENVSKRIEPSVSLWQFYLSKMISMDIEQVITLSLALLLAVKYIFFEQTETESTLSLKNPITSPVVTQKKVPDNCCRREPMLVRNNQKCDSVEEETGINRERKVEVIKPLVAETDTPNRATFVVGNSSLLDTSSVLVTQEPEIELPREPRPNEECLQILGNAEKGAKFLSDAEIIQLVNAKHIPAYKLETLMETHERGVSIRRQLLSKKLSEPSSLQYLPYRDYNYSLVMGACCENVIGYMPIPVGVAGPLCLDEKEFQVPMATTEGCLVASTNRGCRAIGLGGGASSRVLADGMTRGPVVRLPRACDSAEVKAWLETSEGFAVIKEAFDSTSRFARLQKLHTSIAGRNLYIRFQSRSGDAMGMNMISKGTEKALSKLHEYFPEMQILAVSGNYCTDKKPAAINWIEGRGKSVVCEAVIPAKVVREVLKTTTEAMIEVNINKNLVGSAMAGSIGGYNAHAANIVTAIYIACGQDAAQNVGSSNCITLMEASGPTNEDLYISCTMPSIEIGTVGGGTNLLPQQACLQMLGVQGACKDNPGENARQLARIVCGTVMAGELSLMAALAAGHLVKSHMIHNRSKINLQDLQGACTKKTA
Procedure: (§3) This example measured the effects of the TRF and its components on the hepatic enzymatic activity of HMG-CoA reductase and cholesterol 7α-hydroxylase. […] The amount of feed consumed ranged from 11.19-11.60 g per chicken and the feeding period was 4 weeks. The birds were fasted for a period of 36 hours and refed for 48 hours prior to sacrifice (at 0800 hours).

Fatty Acid Synthase = target: T2, Fatty Acid Synthase (Gallus gallus, UniProt P12276); assay: Fatty acid synthase activity in isolated chicken hepatocytes; format: cell-based
T2 construct: hepatocytes isolated from livers of 8-week old female chickens; endogenous in cells; host or cells: primary chicken hepatocytes
Procedure: (§1) This study measured the effects of three tocotrienols isolated from rice bran on cholesterol-related enzyme activity in hepatocytes isolated from livers of 8-week old female chickens. The chickens were fed the chick mash diet for 8 weeks. They were then fasted for 40 hours and finally refed for 48 hours before sacrifice. The hepatocytes were then prepared following standard methods.
(§2) Each compound was isolated from TRF using the following protocol: A bond Elute amine column was equilibrated with 2 ml hexane. 10 mg of TRF (dissolved in 0.5 ml hexane) was bound to the amine column. The column was washed with 1 ml of hexane, then with 1 ml of 3% isopropanol in hexane. P-21 and P-25 were eluted off the column with 5% isopropanol in hexane. Then using 10% isopropanol in hexane, the impurity P-20 was eluted. α-tocotrienol was also tested.

[2] = tested on: cholesterol 7α-hydroxylase; assay: Hepatic cholesterol 7α-hydroxylase activity in chickens fed supplemented diets; format: in vivo, chicken; settings: control diet + 50 ppm, 4 weeks
Procedure: as §3

HMG-CoA reductase [3] = target: T1, HMG-CoA reductase; assay: HMG-CoA reductase activity in isolated chicken hepatocytes; format: cell-based
Procedure: as §1, §2
We next measured the effects of various tocotrienols and tocotrienol-like compounds isolated from rice bran on the activity of HMG-CoA reductase. 20.0 g of stabilized rice bran was extracted with 200.0 ml of methanol to remove various UV absorbing impurities and tocotrienols (6.7 mg total). This step was repeated four times. The remaining residue was dried under vacuum in a desiccator and then heated at 180° C. for 2 hours under 30 psi pressure. Then the dried residue was extracted again with 200.0 ml methanol (3.4 mg). […]

[4] = tested on: cholesterol 7α-hydroxylase; assay: Cholesterol 7α-hydroxylase activity in isolated chicken hepatocytes; format: cell-based
Procedure: as §1, §2

chickens [5] = assay: Antibody titers to sheep red blood cells in chickens; format: in vivo, chicken; settings: control diet + 50 ppm, 4 weeks, sheep red blood cells i.p.
Procedure: The model for this study was 6-week old female white leghorn chickens. Each group of 12 chickens was fed an unsupplemented chicken diet or a control diet supplemented with 50 ppm of a tocotrienol or 100 ppm of a commercially available hypercholesterolemic agent (Geraniol or Lovastatin). […] The chickens were fed over a period of 4 weeks, then the blood was drawn. The antibody response was determined by injecting the chickens i.p. with 0.5 ml of a 5% suspension of sheep red blood cells (RBCs) in PBS (v/v) which were previously washed three times. […] Relative IgG levels were determined by using 2-mercaptoethanol preincubation for 30 min. The relative IgM levels were calculated by subtracting the IgG antibody levels from total antibody levels. All antibody levels are expressed as the log base 2 of the highest titer that was needed to hemagglutinate an equal volume of 0.5% RBC suspension.

chickens [6] = assay: Plasma thromboxane B2 and platelet factor 4 in chickens fed supplemented diets; format: in vivo, chicken; settings: control diet + 50 ppm, 4 weeks
From the text: We next measured the effects of TRF and its components on serum levels of apolipoprotein (a)1, apolipoprotein B, triglycerides and glucose and the plasma levels of thromboxane B2 and platelet factor 4.

chickens [7] = assay: Serum cholesterol, apolipoproteins, triglycerides and glucose in chickens fed supplemented diets; format: in vivo, chicken; settings: control diet + 50 ppm, 4 weeks
From the text: All assays conducted on chicken or swine serum were done following the protocols described in A. A. Qureshi et al., "Lowering Of Serum Cholesterol In Hypercholesterolemic Humans By Tocotrienols" (Palmvitee), Am. J. Clin. Nutr., 53, pp. 1021S-26S (1991). All enzymatic assays were done following the protocols described in A. A. Qureshi et al., "Effects of Cereals and Culture Filtrate of Trichoderma viride on Lipid Metabolism of Swine", Lipids, 17, pp. 924 (1982). Plasma insulin, glucagon and TNF levels were measured using radioinnumoassay kits from Ventrex Laboratories, Inc. (Portland, Me.), ICN Biomedicals, Inc. (Costa Mesa, Calif.) and Genzyme Corp. (Cambridge, Mass.), respectively. […]
Each group of 6 chickens (6-week old female while leghorn) was administered the chick mash diet described in Example 5, supplemented with one of three different amounts of waxes (sterols), 50 ppm of TRF (prepared as in Example 2) or 5% equivalent of the methanol insoluble fraction Louisiana rice bran oil. […] The birds were fasted for a period of 14 hours prior to sacrifice (at 0800 hours). […]

T2 sequence (P12276 2-2512 limits assumed): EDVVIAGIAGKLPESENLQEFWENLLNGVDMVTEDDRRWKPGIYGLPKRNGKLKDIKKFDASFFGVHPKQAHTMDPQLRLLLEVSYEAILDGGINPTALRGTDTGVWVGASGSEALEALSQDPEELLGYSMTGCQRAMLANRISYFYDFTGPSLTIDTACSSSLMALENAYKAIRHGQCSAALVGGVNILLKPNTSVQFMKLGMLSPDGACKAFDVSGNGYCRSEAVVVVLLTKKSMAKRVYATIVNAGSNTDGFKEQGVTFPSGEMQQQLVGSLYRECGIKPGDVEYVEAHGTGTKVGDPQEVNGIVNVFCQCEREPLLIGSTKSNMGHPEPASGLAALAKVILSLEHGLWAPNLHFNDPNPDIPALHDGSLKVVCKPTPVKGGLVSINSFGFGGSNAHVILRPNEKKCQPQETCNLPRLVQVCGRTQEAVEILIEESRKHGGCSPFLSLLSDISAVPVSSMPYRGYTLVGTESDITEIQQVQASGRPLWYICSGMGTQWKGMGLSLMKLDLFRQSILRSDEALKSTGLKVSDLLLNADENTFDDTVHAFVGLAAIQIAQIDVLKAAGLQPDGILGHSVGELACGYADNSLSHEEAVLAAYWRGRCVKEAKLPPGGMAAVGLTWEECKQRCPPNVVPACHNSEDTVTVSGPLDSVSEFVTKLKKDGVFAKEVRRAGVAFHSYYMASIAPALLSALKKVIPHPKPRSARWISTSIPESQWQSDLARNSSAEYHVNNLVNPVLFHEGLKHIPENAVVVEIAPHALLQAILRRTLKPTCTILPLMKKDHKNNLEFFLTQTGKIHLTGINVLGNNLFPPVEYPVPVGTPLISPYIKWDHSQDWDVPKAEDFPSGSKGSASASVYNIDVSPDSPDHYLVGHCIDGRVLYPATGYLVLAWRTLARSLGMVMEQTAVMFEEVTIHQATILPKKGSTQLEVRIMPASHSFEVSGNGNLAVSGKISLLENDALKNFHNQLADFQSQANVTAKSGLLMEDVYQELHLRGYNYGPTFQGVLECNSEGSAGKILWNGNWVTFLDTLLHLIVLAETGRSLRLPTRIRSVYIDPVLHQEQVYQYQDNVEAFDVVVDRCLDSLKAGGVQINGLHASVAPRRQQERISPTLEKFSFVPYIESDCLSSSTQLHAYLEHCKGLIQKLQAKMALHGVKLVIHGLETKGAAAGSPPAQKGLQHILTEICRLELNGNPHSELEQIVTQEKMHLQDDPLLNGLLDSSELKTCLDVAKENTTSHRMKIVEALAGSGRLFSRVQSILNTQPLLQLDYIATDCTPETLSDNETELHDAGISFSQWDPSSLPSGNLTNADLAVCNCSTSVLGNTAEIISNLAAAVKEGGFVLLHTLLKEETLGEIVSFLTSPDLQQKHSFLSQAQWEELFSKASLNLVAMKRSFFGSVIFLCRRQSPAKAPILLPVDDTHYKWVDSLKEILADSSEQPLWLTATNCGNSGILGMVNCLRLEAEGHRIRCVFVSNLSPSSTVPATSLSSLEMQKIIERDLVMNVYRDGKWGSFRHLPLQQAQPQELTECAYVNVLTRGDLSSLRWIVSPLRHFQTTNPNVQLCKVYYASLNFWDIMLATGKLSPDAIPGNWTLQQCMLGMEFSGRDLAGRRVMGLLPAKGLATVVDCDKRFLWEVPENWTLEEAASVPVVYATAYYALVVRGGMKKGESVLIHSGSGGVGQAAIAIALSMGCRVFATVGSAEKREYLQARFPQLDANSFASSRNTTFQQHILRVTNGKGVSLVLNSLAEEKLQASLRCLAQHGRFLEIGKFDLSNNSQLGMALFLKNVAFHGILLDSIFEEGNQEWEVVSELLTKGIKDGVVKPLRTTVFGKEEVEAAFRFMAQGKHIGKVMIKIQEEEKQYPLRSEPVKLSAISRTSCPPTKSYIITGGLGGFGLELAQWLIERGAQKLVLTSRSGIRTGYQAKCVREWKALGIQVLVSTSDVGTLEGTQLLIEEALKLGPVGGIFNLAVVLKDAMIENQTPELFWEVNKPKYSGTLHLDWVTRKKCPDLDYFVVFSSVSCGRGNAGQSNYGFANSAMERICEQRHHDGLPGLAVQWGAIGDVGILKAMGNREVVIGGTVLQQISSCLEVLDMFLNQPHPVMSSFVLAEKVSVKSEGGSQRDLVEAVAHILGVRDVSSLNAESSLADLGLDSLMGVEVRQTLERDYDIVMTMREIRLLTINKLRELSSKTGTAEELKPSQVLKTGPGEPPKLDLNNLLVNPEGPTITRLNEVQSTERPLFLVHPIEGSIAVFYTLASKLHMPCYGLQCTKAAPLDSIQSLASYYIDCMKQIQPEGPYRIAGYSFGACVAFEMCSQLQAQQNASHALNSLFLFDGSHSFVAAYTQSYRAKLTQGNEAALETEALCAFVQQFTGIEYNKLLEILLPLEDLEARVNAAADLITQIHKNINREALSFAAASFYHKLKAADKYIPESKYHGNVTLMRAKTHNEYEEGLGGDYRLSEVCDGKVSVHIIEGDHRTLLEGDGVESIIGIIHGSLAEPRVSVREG

HMG-CoA Reductase, percentage of control (HMG-CoA reductase [1]): 89.43% | Fatty Acid Synthase (Fatty Acid Synthase; 10.0 μg/mL): 15.2 nmol/min/mg | Fatty Acid Synthase, percentage of 0.0 μg/mL (Fatty Acid Synthase; 10.0 μg/mL): 88.4% | Fatty Acid Synthase (Fatty Acid Synthase; 20.0 μg/mL): 14.3 nmol/min/mg | Fatty Acid Synthase, percentage of 0.0 μg/mL (Fatty Acid Synthase; 20.0 μg/mL): 83.2% | Fatty Acid Synthase (Fatty Acid Synthase; 40.0 μg/mL): 12.4 nmol/min/mg | Fatty Acid Synthase, percentage of 0.0 μg/mL (Fatty Acid Synthase; 40.0 μg/mL): 72.1% | maximum reduction in activity of HMG-CoA reductase (HMG-CoA reductase [3]): 37.7%
Compound: CC(C)=CCC/C(C)=C/CC/C(C)=C/CC[C@]1(C)CCc2c(C)c(O)c(C)c(C)c2O1 [α-T3, α-tocotrienol]
Cholesterol 7α-Hydroxylase, percentage of control [2]: 104.60% | Cholesterol 7α-hydroxylase [2]: 10.69 nmol/min/mg | Cholesterol 7α-hydroxylase ([4]; 10.0 μg/mL): 2.12 pmol/min/mg | Cholesterol 7α-hydroxylase, percentage of 0.0 μg/mL ([4]; 10.0 μg/mL): 91.8% | Cholesterol 7α-hydroxylase ([4]; 20.0 μg/mL): 2.27 pmol/min/mg | Cholesterol 7α-hydroxylase, percentage of 0.0 μg/mL ([4]; 20.0 μg/mL): 98.7% | Cholesterol 7α-hydroxylase ([4]; 40.0 μg/mL): 2.34 pmol/min/mg | Cholesterol 7α-hydroxylase, percentage of 0.0 μg/mL ([4]; 40.0 μg/mL): 101.3% | IgG antibody titers in serum (chickens [5]): 1.00 Log 2 | IgM antibody titers in serum (chickens [5]): 6.60 ± 1.24 Log 2 | Total Ab titers in serum (chickens [5]): 7.10 ± 1.51 Log 2 | Platelet Factor 4 (chickens [6]): 8.78 ng/mL | Platelet Factor 4, percentage of control (chickens [6]): 67.07% | Thromboxane B2 (chickens [6]): 21.63 pg/mL | Thromboxane B2, percentage of control (chickens [6]): 83.71% | APO A1, percentage of control (chickens [7]): 99.43% | APO A1 in serum (chickens [7]): 139.6 mg/100 ml | APO B in serum (chickens [7]): 29.30 mg/100 ml | APO B, percentage of control (chickens [7]): 88.52% | DL-Cholesterol/Total Cholesterol (chickens [7]): 0.61 | DL-Cholesterol/Total Cholesterol, percentage of control (chickens [7]): 104.30% | Glucose in serum (chickens [7]): 216.90 mg/100 ml | Glucose, percentage of control (chickens [7]): 96.70% | HDL-Cholesterol in serum (chickens [7]): 80.47 ± 0.67 mg/dL | HDL-Cholesterol, percentage of control (chickens [7]): 96.19% | HDL-Cholesterol/LDL-Cholesterol (chickens [7]): 2.09 | HDL-Cholesterol/LDL-Cholesterol, percentage of control (chickens [7]): 110.40% | LDL-Cholesterol in serum (chickens [7]): 47.97 ± 0.56 mg/dL | LDL-Cholesterol, percentage of control (chickens [7]): 87.12% | Total Cholesterol in serum (chickens [7]): 131.71 ± 1.08 mg/dL | Total Cholesterol, percentage of control (chickens [7]): 92.25% | Triglycerides in serum (chickens [7]): 68.04 mg/100 ml | Triglycerides, percentage of control (chickens [7]): 91.91%

HMG-CoA Reductase, percentage of control (HMG-CoA reductase [1]): 75.83%
Compound: CC(C)=CCC/C(C)=C/CC/C(C)=C/CCC1(C)CCc2cc(O)cc(C)c2O1 (stereo not drawn) [δ-T3, δ-tocotrienol]
Cholesterol 7α-Hydroxylase, percentage of control [2]: 107.44% | Cholesterol 7α-hydroxylase [2]: 10.98 nmol/min/mg | IgG antibody titers in serum (chickens [5]): 1.00 Log 2 | IgM antibody titers in serum (chickens [5]): 8.25 ± 1.96 Log 2 | Total Ab titers in serum (chickens [5]): 8.67 ± 1.78 Log 2 | Platelet Factor 4 (chickens [6]): 8.23 ng/mL | Platelet Factor 4, percentage of control (chickens [6]): 62.87% | Thromboxane B2 (chickens [6]): 18.65 pg/mL | Thromboxane B2, percentage of control (chickens [6]): 72.17% | APO A1, percentage of control (chickens [7]): 99.22% | APO A1 in serum (chickens [7]): 139.30 mg/100 ml | APO B in serum (chickens [7]): 27.30 mg/100 ml | APO B, percentage of control (chickens [7]): 82.48% | DL-Cholesterol/Total Cholesterol (chickens [7]): 0.65 | DL-Cholesterol/Total Cholesterol, percentage of control (chickens [7]): 111.30% | Glucose in serum (chickens [7]): 205.30 mg/100 ml | Glucose, percentage of control (chickens [7]): 91.53% | HDL-Cholesterol in serum (chickens [7]): 77.78 ± 0.97 mg/dL | HDL-Cholesterol, percentage of control (chickens [7]): 93.08% | HDL-Cholesterol/LDL-Cholesterol (chickens [7]): 2.15 | HDL-Cholesterol/LDL-Cholesterol, percentage of control (chickens [7]): 141.80% | LDL-Cholesterol in serum (chickens [7]): 36.14 ± 0.97 mg/dL | LDL-Cholesterol, percentage of control (chickens [7]): 65.64% | Total Cholesterol in serum (chickens [7]): 119.40 ± 1.41 mg/dL | Total Cholesterol, percentage of control (chickens [7]): 83.63% | Triglycerides in serum (chickens [7]): 60.50 mg/100 ml | Triglycerides, percentage of control (chickens [7]): 81.72%
